Common to all, as to type: biochemical
One test deals with HDAC2 (Homo sapiens (Human), UniProt Q92769). Kind of test: HDAC enzyme assay HDAC2. As to the method:
Compounds for testing were diluted in DMSO to 50 fold the final concentration and a ten-point three-fold dilution series was made. The compounds were diluted in assay buffer (50 mM HEPES, pH 7.4, 100 mM KCl, 0.001% Tween-20, 0.05% BSA, 20 μM TCEP) to 6-fold their final concentration. The HDAC enzymes (purchased from BPS Biosciences) were diluted to 1.5-fold their final concentration in assay buffer. The tripeptide substrate and trypsin at 0.05 μM final concentration were diluted in assay buffer at 6-fold their final concentration. The final enzyme concentrations used in these assays were 3.3 ng/ml (HDAC1), 0.2 ng/ml (HDAC2) and 0.08 ng/ml (HDAC3). The final substrate concentrations used were 16 μM (HDAC1), 10 μM (HDAC2) and 17 μM (HDAC3).
Five μl of compounds and 20 μl of enzyme were added to wells of a black, opaque 384 well plate in duplicate. Enzyme and compound were incubated together at room temperature for 10 minutes. Five μl of substrate was added to each well, the plate was shaken for 60 seconds and placed into a Victor 2 microtiter plate reader. The development of fluorescence was monitored for 60 min and the linear rate of the reaction was calculated. The IC50 was determined using Graph Pad Prism by a four parameter curve fit.

For another test, the target named is HDAC1 (Homo sapiens (Human), UniProt Q13547). Kind of test: HDAC enzyme assay HDAC1.
In the next test the target is HDAC3 (Homo sapiens (Human), UniProt O15379). Kind of test: HDAC enzyme assay HDAC3. As to the method: Compounds for testing were diluted in DMSO to 50 fold the final concentration and a ten-point three-fold dilution series was made. The compounds were diluted in assay buffer (50 mM HEPES, pH 7.4, 100 mM KCl, 0.001% Tween-20, 0.05% BSA, 20 μM TCEP) to 6-fold their final concentration. The HDAC enzymes (purchased from BPS Biosciences) were diluted to 1.5-fold their final concentration in assay buffer. The tripeptide substrate and trypsin at 0.05 μM final concentration were diluted in assay buffer at 6-fold their final concentration. The final enzyme concentrations used in these assays were 3.3 ng/ml (HDAC1), 0.2 ng/ml (HDAC2) and 0.08 ng/ml (HDAC3). The final substrate concentrations used were 16 μM (HDAC1), 10 μM (HDAC2) and 17 μM (HDAC3). Five μl of compounds and 20 μl of enzyme were added to wells of a black, opaque 384 well plate in duplicate. Enzyme and compound were incubated together at room temperature for 10 minutes. Five μl of substrate was added to each well, the plate was shaken for 60 seconds and placed into a Victor 2 microtiter plate reader. The development of fluorescence was monitored for 60 min and the linear rate of the reaction was calculated. The IC50 was determined using Graph Pad Prism by a four parameter curve fit. In Table 4 below, letter designations are defined as follows: […]

As a reminder, the IC50 is the concentration at which inhibition is half-maximal. Read a high IC50 as a need for much substance.

Sequence of HDAC1 (Q13547 whole entry): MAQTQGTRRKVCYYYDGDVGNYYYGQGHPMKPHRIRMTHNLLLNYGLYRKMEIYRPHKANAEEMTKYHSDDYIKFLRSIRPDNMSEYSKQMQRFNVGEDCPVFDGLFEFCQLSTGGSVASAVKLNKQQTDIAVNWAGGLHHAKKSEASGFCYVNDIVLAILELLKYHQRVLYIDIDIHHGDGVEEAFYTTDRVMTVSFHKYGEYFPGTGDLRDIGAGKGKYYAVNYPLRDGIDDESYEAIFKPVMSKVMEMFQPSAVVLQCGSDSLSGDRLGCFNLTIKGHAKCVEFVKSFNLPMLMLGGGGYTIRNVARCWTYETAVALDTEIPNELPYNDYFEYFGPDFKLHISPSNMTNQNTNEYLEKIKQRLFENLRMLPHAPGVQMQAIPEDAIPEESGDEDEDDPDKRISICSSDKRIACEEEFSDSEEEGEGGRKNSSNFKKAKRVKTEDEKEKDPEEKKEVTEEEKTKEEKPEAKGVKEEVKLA
Sequence of HDAC2 (Q92769 whole entry): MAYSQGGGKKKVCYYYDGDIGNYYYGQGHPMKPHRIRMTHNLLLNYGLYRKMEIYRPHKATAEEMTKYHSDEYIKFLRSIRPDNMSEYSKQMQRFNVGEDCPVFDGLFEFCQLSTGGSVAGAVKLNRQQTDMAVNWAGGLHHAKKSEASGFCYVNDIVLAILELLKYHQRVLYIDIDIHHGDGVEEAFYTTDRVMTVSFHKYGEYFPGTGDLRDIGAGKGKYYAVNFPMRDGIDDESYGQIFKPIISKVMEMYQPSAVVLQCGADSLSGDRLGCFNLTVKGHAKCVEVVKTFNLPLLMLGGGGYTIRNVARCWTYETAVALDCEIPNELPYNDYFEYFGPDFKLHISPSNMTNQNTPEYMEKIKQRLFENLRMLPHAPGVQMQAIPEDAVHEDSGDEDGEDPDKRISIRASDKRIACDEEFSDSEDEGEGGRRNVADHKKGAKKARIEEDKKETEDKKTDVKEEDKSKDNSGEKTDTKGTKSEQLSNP
Sequence of HDAC3 (O15379 whole entry): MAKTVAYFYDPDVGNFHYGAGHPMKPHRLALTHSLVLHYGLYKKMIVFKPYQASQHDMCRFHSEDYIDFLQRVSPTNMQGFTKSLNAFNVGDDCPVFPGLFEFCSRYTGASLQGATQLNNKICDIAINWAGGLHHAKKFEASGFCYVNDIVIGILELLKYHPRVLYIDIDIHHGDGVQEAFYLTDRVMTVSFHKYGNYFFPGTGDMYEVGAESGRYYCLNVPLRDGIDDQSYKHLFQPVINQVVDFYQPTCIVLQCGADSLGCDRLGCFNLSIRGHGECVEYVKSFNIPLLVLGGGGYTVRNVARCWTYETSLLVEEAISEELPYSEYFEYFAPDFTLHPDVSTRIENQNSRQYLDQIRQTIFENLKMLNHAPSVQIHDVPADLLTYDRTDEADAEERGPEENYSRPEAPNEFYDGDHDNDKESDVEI
Sequence of HDAC3 (Q9Y618 395-489 partner): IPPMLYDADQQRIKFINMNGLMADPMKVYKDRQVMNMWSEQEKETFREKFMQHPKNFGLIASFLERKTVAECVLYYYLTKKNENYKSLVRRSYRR

As to `Nc1ccc(-c2ccccc2)cc1NC(=O)c1ccc(N2CCNCC2)s1` [Compound 064], the IC50 at HDAC2 is 10 to 500 nM; on HDAC1, less than 10 nM; against HDAC3, 10 to 500 nM.
Consider `CN1CCN(c2ccc(C(=O)Nc3cc(-c4cccs4)ccc3N)nc2)CC1` [Compound 080], for which the IC50 against HDAC2 is less than 10 nM; against HDAC1 it was less than 10 nM; against HDAC3, 10 to 500 nM.
Turning to `Nc1ccc(-c2ccc(F)cc2)cc1NC(=O)c1ncc(N2CCNCC2)s1` [Compound 053], the IC50 against HDAC2 was less than 10 nM; on HDAC1 it was less than 10 nM; against HDAC3 it was 10 to 500 nM.
With `Nc1ccc(-c2ccoc2)cc1NC(=O)c1cnc(N2CCNCC2)s1` [Compound 046], the IC50 was 10 to 500 nM at HDAC2, less than 10 nM on HDAC1 and 10 to 500 nM on HDAC3.
Turning to `Nc1ccc(-c2ccncc2)cc1NC(=O)c1cnc(N2CCNCC2)cn1` [Compound 089], the IC50 against HDAC2, at HDAC1 and against HDAC3 was 10 to 500 nM each time.
For `Nc1ccc(-c2ccccn2)cc1NC(=O)c1ccc(N2CCNCC2)cn1` [Compound 081], the IC50 against HDAC2 was 10 to 500 nM; on HDAC1, 10 to 500 nM; at HDAC3, greater than 500 nM.
In the case of `Nc1ccc(-c2cccs2)cc1NC(=O)c1cnc(N2CCNCC2)o1` [Compound 060], the IC50 against HDAC2, against HDAC1 and against HDAC3 was greater than 500 nM throughout.
Take `Nc1ccc(-c2ccc(F)cc2)cc1NC(=O)c1cnc(N2CCNCC2)s1` [Compound 037]: the IC50 is 10 to 500 nM on HDAC2, less than 10 nM at HDAC1 and 10 to 500 nM on HDAC3.
As for `CN1CCN(c2ncc(C(=O)Nc3cc(-c4ccccc4)ccc3N)s2)CC1` [Compound 048], the IC50 on HDAC2 is 10 to 500 nM; on HDAC1 it was less than 10 nM; against HDAC3 it was greater than 500 nM.
For `Nc1ccc(-c2ccco2)cc1NC(=O)c1cnc(N2CCNCC2)s1` [Compound 034], the IC50 is 10 to 500 nM at HDAC2, less than 10 nM against HDAC1 and 10 to 500 nM against HDAC3.
As to `Nc1ccc(-c2cccs2)cc1NC(=O)c1csc(N2CCNCC2)n1` [Compound 059], the IC50 against HDAC2 was 10 to 500 nM; against HDAC1, greater than 500 nM; against HDAC3, 10 to 500 nM.
For `CN1CCN(c2ccc(C(=O)Nc3cc(-c4ccoc4)ccc3N)nc2)CC1` [Compound 083], the IC50 on HDAC2 was 10 to 500 nM; at HDAC1, less than 10 nM; at HDAC3 it was 10 to 500 nM.
As to `Nc1ccc(-c2ccccn2)cc1NC(=O)c1cnc(N2CCNCC2)s1` [Compound 044], the IC50 was 10 to 500 nM at HDAC2, 10 to 500 nM against HDAC1 and greater than 500 nM against HDAC3.
For the compound `CN1CCN(c2ccc(C(=O)Nc3cc(-c4ccco4)ccc3N)cn2)CC1` [Compound 074], the IC50 at HDAC2 is 10 to 500 nM; on HDAC1, less than 10 nM; at HDAC3, 10 to 500 nM.
For the compound `Nc1ccc(-c2ccco2)cc1NC(=O)c1ccc(N2CCNCC2)s1` [Compound 065], the IC50 against HDAC2 is 10 to 500 nM; against HDAC1 it was less than 10 nM; against HDAC3, 10 to 500 nM.
With `Nc1ccc(-c2cc(F)cc(F)c2)cc1NC(=O)c1ccc(N2CCNCC2)cn1` [Compound 084], the IC50 at HDAC2, on HDAC1 and on HDAC3 was greater than 500 nM each time.
As to `Nc1ccc(-c2cccnc2)cc1NC(=O)c1cnc(N2CCNCC2)s1` [Compound 045], the IC50 on HDAC2, at HDAC1 and against HDAC3 was 10 to 500 nM in each case.
As to `Nc1ccc(-c2ccco2)cc1NC(=O)c1nc(N2CCNCC2)cs1` [Compound 055], the IC50 at HDAC2 was 10 to 500 nM; against HDAC1, greater than 500 nM; against HDAC3, greater than 500 nM.
`Cc1nc(C(=O)Nc2cc(-c3ccco3)ccc2N)sc1N1CCNCC1` [Compound 042]: the IC50 was 10 to 500 nM against HDAC2, less than 10 nM on HDAC1 and 10 to 500 nM against HDAC3.
As for `Nc1ccc(-c2ccccc2F)cc1NC(=O)c1ccc(N2CCNCC2)nc1` [Compound 076], the IC50 against HDAC2 was 10 to 500 nM; against HDAC1, less than 10 nM; against HDAC3, 10 to 500 nM.
On to `Nc1ccc(-c2cccnc2)cc1NC(=O)c1ccc(N2CCNCC2)nc1` [Compound 072], for which the IC50 at HDAC2, on HDAC1 and against HDAC3 was 10 to 500 nM in each case.
On to `Nc1ccc(-c2ccccc2)cc1NC(=O)c1cnc(N2CCNCC2)s1` [Compound 047], for which the IC50 on HDAC2 was 10 to 500 nM; on HDAC1 it was less than 10 nM; at HDAC3, greater than 500 nM.
Take `Nc1ccc(-c2cc(F)cc(F)c2)cc1NC(=O)c1ccc(N2CCNCC2)nc1` [Compound 078]: the IC50 at HDAC2 was 10 to 500 nM; against HDAC1, greater than 500 nM; on HDAC3, greater than 500 nM.
For the compound `Nc1ccc(-c2ccc(F)cc2)cc1NC(=O)c1cnc(N2CCNCC2)cn1` [Compound 090], the values for the IC50 against HDAC2, against HDAC1 and against HDAC3 were 10 to 500 nM, less than 10 nM and 10 to 500 nM, respectively.
On to `Nc1ccc(-c2cccc(F)c2)cc1NC(=O)c1ccc(N2CCNCC2)nc1` [Compound 077], for which the IC50 against HDAC2, on HDAC1 and on HDAC3 was 10 to 500 nM in each case.
`CN1CCN(c2ccc(C(=O)Nc3cc(-c4ccoc4)ccc3N)cn2)CC1` [Compound 075]: the IC50 on HDAC2 is 10 to 500 nM; on HDAC1, less than 10 nM; at HDAC3, 10 to 500 nM.
As for `Nc1ccc(-c2ccoc2)cc1NC(=O)c1cnc(N2CCNCC2)cn1` [Compound 088], the IC50 was 10 to 500 nM against HDAC2, less than 10 nM at HDAC1 and 10 to 500 nM against HDAC3.
Consider `Cc1nc(C(=O)Nc2cc(-c3cccs3)ccc2N)sc1N1CCNCC1` [Compound 041], for which the IC50 was 10 to 500 nM on HDAC2, less than 10 nM on HDAC1 and 10 to 500 nM at HDAC3.
`Nc1ccc(-c2ccncc2)cc1NC(=O)c1nc(N2CCNCC2)cs1` [Compound 057]: the IC50 was 10 to 500 nM at HDAC2, greater than 500 nM at HDAC1 and greater than 500 nM at HDAC3.
Turning to `CN1CCN(c2ccc(C(=O)Nc3cc(-c4ccccc4)ccc3N)cn2)CC1` [Compound 070], the IC50 against HDAC2 was 10 to 500 nM; at HDAC1 it was less than 10 nM; on HDAC3, 10 to 500 nM.
On to `Nc1ccc(-c2ccc(F)cc2)cc1NC(=O)c1cnc(N2CCNCC2)o1` [Compound 063], for which the half-inhibitory concentration (IC50) on HDAC2, on HDAC1 and against HDAC3 was greater than 500 nM throughout.
As for `Nc1ccc(-c2ccoc2)cc1NC(=O)c1ccc(N2CCNCC2)s1` [Compound 066], the results for the IC50 at HDAC2, at HDAC1 and at HDAC3 were 10 to 500 nM, less than 10 nM and 10 to 500 nM, respectively.

For the origin of these results see patent US10385031B2, “Substituted piperazines as selective HDAC1,2 inhibitors” (Regenacy Pharmaceuticals, LLC, priority 2016, dated 2019).
